According to PubChem BioAssay AID1361 (SRMLSC, 2008):
Activity calls are given as the source filed them. The rule behind the calls is not given here.

Assay: blockers of mitochondrial fusion, WT vs mutant – cell-based, chemical genetic, wild-type and mutant, confirmation (AID 1361)
Conditions: Cell-based mitochondrial fusion phenotype, imaging
[1] = mutant cells, measured here: mutant cell line IC50

SMILES	IC50 (WT cells)	IC50 [1]
COc1ccc(Cn2nc(-c3ccccc3)c(N3CCCCC3)cc2=O)cc1	10.3 µM	> 25 µM
Cc1cc(Cl)ccc1NC(=S)NCCC(c1ccccc1)c1ccccc1	4.91 µM	> 25 µM
c1n[nH]c(NCc2ccc3c(c2)OCO3)n1	> 25 µM (inactive)	> 25 µM
NC(=O)c1ccc(NC(=O)CCCN2C(=O)c3ccccc3C2=O)cc1	> 25 µM (inactive)	> 25 µM
CC(Sc1ccc(Cl)cc1)C(=O)Nc1ccccc1-c1ccccc1 (centres undefined)	13 µM	> 25 µM
Cc1oc(-c2ccccc2)nc1CN1C(=O)C(C)N=C(c2ccccc2F)c2cc(Cl)ccc21 (centres undefined)	12.4 µM	> 25 µM
C/C(=N\N1CCCCC1c1cccnc1)c1c(O)n(C2CCCCC2)c(=S)[nH]c1=O (centres undefined)	> 25 µM (inactive)	> 25 µM
O=C1NC(=O)C(CCc2ccncc2)(Cc2cccc(Cl)c2Cl)C(=O)N1c1ccc(Br)cc1 (centres undefined)	10.1 µM	> 25 µM
Cc1ccc(NNC(=S)Nc2ccc(C(C)C)cc2)c(C)c1	15.3 µM	> 25 µM
COC(=O)c1c(NC(=O)CN2CCC3(O)CCCCC3C2c2ccccc2OC)sc(C)c1C (centres undefined)	10.4 µM	> 25 µM
Cc1cc(C)n(CCc2nc(-c3ccc(C(C)(C)C)cc3)cs2)n1	22.1 µM	> 25 µM
CCOc1ccc(C(C(=O)NC2CCCC2)N(Cc2ccccc2)C(=O)c2nsc(Cl)c2Cl)cc1 (centres undefined)	12 µM	> 25 µM
Cc1nn(CCC(N)=S)c2nc(-c3cccs3)cc(C(F)(F)F)c12	18.9 µM	> 25 µM
CC(C)(C)[C@H]1C=C(C(=O)N2CCN(Cc3ccc4c(c3)OCO4)CC2)O[C@@H](OCc2ccc(CO)cc2)C1	10 µM	> 25 µM
CCCOc1ccc(-c2nc(C#N)c(N3CCC(C(N)=O)CC3)o2)cc1	> 25 µM (inactive)	> 25 µM
CCN(CC)c1nc(-c2ccccc2)ncc1S(=O)(=O)c1ccc(C)cc1	11 µM	> 25 µM
Cc1ccc2nc(NCCCNC(=O)c3cnccn3)c(C#N)cc2c1	> 25 µM (inactive)	> 25 µM
Cc1nc(-c2ccccc2)sc1-c1nc(-c2ccncc2)ncc1S(=O)(=O)c1ccccc1	10.5 µM	> 25 µM
CCOC(=O)N1CCN(C(=O)CN(C)S(=O)(=O)c2ccc3c(c2)C(C)(C)C(=O)N3C)CC1	> 25 µM (inactive)	> 25 µM
CC(=O)Nc1ccc(S(=O)(=O)N2CCN(C)CC2)cc1	> 25 µM (inactive)	> 25 µM
O=S(=O)(NCC(Nc1ccc(Cl)cc1)c1ccccc1)c1ccc(Cl)cc1 (centres undefined)	> 25 µM (inactive)	> 12.5 µM
c1ccc(-c2nnc(CSc3nnc(-c4ccncc4)n3Cc3ccco3)o2)cc1	> 25 µM (inactive)	> 25 µM
NC(=O)NCCC1=CCCCC1	> 25 µM (inactive)	> 25 µM
CCCC(NC(=S)NCC1CCCO1)C12CC3CC(CC(C3)C1)C2 (centres undefined)	7.52 µM	> 25 µM
COc1ccc(CNC(=O)C2CC(=O)N(c3ccc(OCC(=O)N4C(C)CCCC4C)cc3)C2)cc1 (centres undefined)	> 25 µM (inactive)	> 25 µM
COc1ccc(OC)c(-c2cc(C3CCN(c4cc(Cl)nc(N)n4)CC3)[nH]n2)c1	> 25 µM (inactive)	> 25 µM
CC(=O)N1CCC(O)(c2cccc(C(F)(F)F)c2)CC1	> 25 µM (inactive)	> 25 µM

SMILES	IC50 (WT cells)	IC50 [1]
COc1cc(SC#N)ccc1N=Cc1c(C)[nH]n(-c2ccc(C)cc2)c1=O	17.4 µM	> 25 µM
CSc1nnc(C2CCNCC2)n1C	> 25 µM (inactive)	> 25 µM
COC(=O)c1cn(C(=O)OC)c2ccccc12	> 25 µM (inactive)	> 25 µM
CN1CCN(c2nc(-c3cccnc3)nc3ccccc23)CC1	> 25 µM (inactive)	> 25 µM
Cc1cccc(NC(=S)N/N=C/c2ccc3c(c2)OCO3)c1	> 25 µM (inactive)	> 25 µM
c1ccc2c(c1)CCN(c1ncnc3c1[nH]c1ccccc13)C2	> 25 µM (inactive)	> 25 µM
COc1cc(C(=O)OC2CC3CCC2(C)C3(C)C)ccc1OC(C)=O (centres undefined)	20 µM	> 25 µM
O=C1N(O)C2(C=CCCC2)/C(=N\O)C12CCCCC2 (centres undefined)	> 25 µM (inactive)	> 25 µM
CC1CCCN(C(=O)CSc2nnc(-c3cccnc3)n2C2CCCCC2)C1 (centres undefined)	> 25 µM (inactive)	> 25 µM
O=C(Nc1ccccc1Sc1ccccc1)c1ccc(F)cc1	> 25 µM (inactive)	> 25 µM
N=c1c(C(=O)NCc2ccco2)cc2c(=O)n3ccccc3nc2n1Cc1ccc(Cl)cc1	> 25 µM (inactive)	> 25 µM
CC(c1ccccc1)N(CC(=O)NC1CCCCC1)S(=O)(=O)c1cccc(C(F)(F)F)c1 (centres undefined)	12.4 µM	> 25 µM
CCOC(=O)c1c(NC(=O)C2CCN(S(=O)(=O)c3cccs3)CC2)sc(C)c1C	> 25 µM (inactive)	> 25 µM
CN(C)c1ncc(S(=O)(=O)c2ccc(Cl)cc2)c(-c2ccc(Cl)cc2Cl)n1	9.56 µM	15.3 µM
CC(C)Cn1c(CN(Cc2ccccc2)Cc2ccccc2)nc2c1c(=O)n(C)c(=O)n2C	11.5 µM	> 25 µM
Cc1ccc(N=Cc2c(O)n(-c3ccc4c(c3)OCO4)c(=O)c3ccccc23)cc1	> 25 µM (inactive)	> 25 µM
c1ccc(-c2[nH]c(-c3ccccc3)[n+](CC3CO3)c2-c2ccccc2)cc1 (centres undefined)	18.8 µM	> 25 µM
Fc1ccc(Cn2nnnc2C(c2cccs2)N2CCCCCC2)cc1 (centres undefined)	> 25 µM (inactive)	> 25 µM
CCN1C(=O)S/C(=C/c2c(OCc3ccc(C(=O)O)cc3)ccc3ccccc23)C1=O	18.7 µM	> 25 µM
CCc1nn(C(C)C(=O)NCCN2CCN(c3cccc(C)c3C)CC2)c(=O)c2cc3occc3n12 (centres undefined)	> 25 µM (inactive)	> 25 µM
CCOC(=O)/C(=C\c1cccnc1)C(=O)c1cc(C(C)=O)c(Nc2ccccc2)s1	4.87 µM	> 25 µM
COC(=O)c1ccn(C(=O)c2ccc(Cl)cc2)n1	> 25 µM (inactive)	> 25 µM
CC1(C)CC(=O)C2=C(C1)N(c1ccc(F)cc1)C(=O)C2(O)C(F)(F)F (centres undefined)	> 25 µM (inactive)	> 12.5 µM
Cc1ccc(-c2nn(-c3ccccc3)cc2CSC(=N)N)cc1	> 25 µM (inactive)	> 25 µM
CCCn1c(N2CCC(Cc3ccccc3)CC2)nc2c1c(=O)[nH]c(=O)n2C	> 25 µM (inactive)	> 25 µM
C/C=C(/C(=C/C)c1ccc(O)cc1)c1ccc(O)cc1	21 µM	> 25 µM
CCCCC(=O)O[C@H]1CC[C@H]2[C@@H]3CCc4cc(O)ccc4[C@H]3CC[C@]12C	12.3 µM	> 25 µM

SMILES	IC50 (WT cells)	IC50 [1]
CC(C)C(=O)Nc1nnc(SCC(=O)NCc2cccs2)s1	> 25 µM (inactive)	> 25 µM
Cc1cccc(Cn2nc(-n3cccc3)c3c(C)cc(C)nc32)c1	> 25 µM (inactive)	> 25 µM
COc1cccc(CNC(=O)CNC(=S)N(Cc2ccccc2)Cc2ccccc2F)c1	23.1 µM	> 25 µM
Cc1ccc(NC(=O)c2cc(-c3ccccc3)nn2-c2ccccc2)c(Br)c1	4.51 µM	> 25 µM
CC1(C)CC(=O)C(C=Nc2ccc3[nH]ncc3c2)=C(O)C1	> 25 µM (inactive)	> 25 µM
Cc1cc(C)nc(Nc2ncc(O)n2-c2ccccc2)n1	> 25 µM (inactive)	> 25 µM
CC1CCN(c2nc(-c3cccnc3)nc3scc(-c4ccccc4)c23)CC1	13.1 µM	> 25 µM
COc1ccc(OC)c2c(N)c(C#N)c(C(F)(F)C(F)(F)F)nc12	> 25 µM (inactive)	> 25 µM
CCOc1ccccc1NC(C)C(=O)Nc1cc(C(F)(F)F)ccc1N1CCOCC1 (centres undefined)	19 µM	22.2 µM
CCCOc1ccc(C2C(C(=O)c3ccco3)=C(O)C(=O)N2CCN2CCOCC2)cc1OC (centres undefined)	> 25 µM (inactive)	> 25 µM
COc1ccc2nc(NC(=O)c3cccc(OCc4c(C)noc4C)c3)sc2c1	> 25 µM (inactive)	> 25 µM
Fc1cccc(-c2cc3nc4c(c(N5CCC6(CC5)OCCO6)n3n2)CCCC4)c1	> 25 µM (inactive)	> 25 µM
COc1ccc(NC(=S)NNC(=O)COc2ccc(Cl)cc2Cl)cc1	19.5 µM	> 25 µM
COc1ccc(/C=N/NC(=O)c2ccn[nH]2)cc1COc1ccc(Cl)cc1Cl	23 µM	> 25 µM
Cc1ccc2nc(SC(C(=O)Nc3ccc(F)cc3)c3ccccc3)[nH]c2c1 (centres undefined)	> 25 µM (inactive)	> 25 µM
COC(=O)C1CN(C#N)N(c2ccc(Cl)cc2)C12c1ccccc1-c1ccccc12 (centres undefined)	2.48 µM	> 25 µM
O=[N+]([O-])c1cccnc1N1CCC(c2cc(-c3ccc(Cl)cc3Cl)n[nH]2)CC1	6.53 µM	> 25 µM
CC(C)(C)n1nnnc1C(c1cccnc1)N(Cc1ccccc1)Cc1cccs1 (centres undefined)	9.97 µM	> 25 µM
CCCCc1nc2ccccc2c(=O)n1-c1ccc(Cl)cc1[N+](=O)[O-]	> 25 µM (inactive)	> 25 µM
O=C(/C(=N\O)n1cncn1)c1ccc(Br)cc1Br	> 25 µM (inactive)	> 25 µM
Cc1ccc(SC(C)C(=O)Nc2ccccc2-c2ccccc2)cc1 (centres undefined)	19.8 µM	> 25 µM
Fc1ccc(C(CCCn2nnc(-c3cccnc3)n2)c2ccc(F)cc2)cc1	21.9 µM	> 25 µM
C[C@@H](C[C@@H](O)[C@H](O)C(C)(C)O)[C@@H]1CC[C@]2(C)C3=CC[C@H]4C(C)(C)C(=O)CC[C@]4(C)[C@H]3CC[C@@]12C	> 25 µM (inactive)	> 25 µM
O=C(c1ccc2c(c1)OCO2)N(Cc1ccco1)C1(C(=O)NC2CCCCC2)CCCCC1	> 25 µM (inactive)	> 25 µM
CCN(CC)CCNC(=O)Cn1c(-c2ccccn2)nc2ccccc21		> 25 µM
O=C(Nc1ccc(Cl)cc1)N1CCN(c2ccc3nnc(-c4ccc(F)cc4)n3n2)CC1	> 25 µM (inactive)	> 25 µM
